Measurements from PubChem BioAssay AID2060496 (Molecular Pharmacology Branch, DTP, NCI, 2025).

System: 276233-004-R-J1-PDC complex spheroid viability
Experiment: Anticancer human tumor 276233-004-R-J1-PDC patient-derived colon adenocarcinoma cell line growth inhibition [GQUAD]
Conditions: for IC50: curve of first compound; for viability, T/C: stronger effect = lower value
From the text: DNA G-quadruplex Stabilizer Agents in Combinations in Complex Spheroids
A high-throughput screen of multi-cell type tumor spheroids was designed to identify active combinations of DNA G-quadruplex stabilizer agents and targeted small molecules. Complex spheroids include a stromal component modeled by human endothelial cells (HUVEC) and fibroblasts modeled by human mesenchymal stem cells (MSCs). The concentration ranges selected for each drug and investigational agent were based upon clinically achievable concentrations if the clinical Cmax of the agent was known.
Compounds. The drugs and investigational agents: pidnarulex (CX-5461; NSC782164), APTO-253 (NSC789042), BRACO-19 (NSC847499), peposertib (NSC802822), ceralasertib (NSC780249), elimusertib (NSC800525), camonsertib (NSC841442), AZD-1390 (NSC803789), olaparib (NSC753686), talazoparib (NSC767125), ART-558 (NSC835418), sotorasib (NSC818433), MRTX-1133 (NSC836407), SN-38 (NSC673596), topotecan (NSC609699), etoposide (NSC141540), doxorubicin (NSC123127), gemcitabine (NSC613327), 5-fluorouracil (NSC19893), paclitaxel (NSC125973), vemurafenib (NSC761431), panobinostat (NSC761190), R-306465 (JNJ-16241199; NSC773264), adavosertib (NSC754352), TP-3654 (NSC805149), carboplatin (NSC241240), KSQ-4279 (NSC840948), and staurosporine (NSC755774) were obtained from the National Cancer Institute (NCI) Developmental Therapeutics Program Chemical Repository (34). The FDA-approved anticancer drug set is available from the NCI Developmental Therapeutics Program. […] The stock solutions were prepared in dimethyl sulfoxide (DMSO, Sigma-Aldrich, St. Louis, MO, cat. D2650) at 800-fold the tested concentration and stored at -70 degrees C prior to their use. All drugs and investigational agents were tested over a range starting from a high concentration at or near the clinical Cmax and decreasing in half-log increments. If the clinical Cmax for an agent had not been determined, the highest concentration tested was 10 microM.
2.3 Cell Culture. All cells were maintained in an incubator at 37 degrees C and 5% CO2 with 95% humidity. The PDC lines were cultured according to standard operating procedures established by the NCI PDMR. All PDCs were thawed and cultured in Matrigel-coated flasks prepared with a working solution of 1X Ham's F-12 nutrient mix, without supplementation (Invitrogen, cat. 11765054), 100 U/mL penicillin-streptomycin (Invitrogen, cat. 15140122), and 2.5% Matrigel (Corning Inc., cat. 354248) for the first three passages. The 857933-349-R-J2-PDC line was cultured in 6C/Colon 1B media, which includes advanced DMEM/F-12 (Thermo Fisher Scientific, cat. 12634028), 10 mM HEPES (Thermo Fisher Scientific, cat. 15630080), 1X GlutaMAX supplement (Thermo Fisher Scientific, cat. 35050061), 0.1 mg/mL primocin (InvivoGen, cat. ant-pm-2), 10% defined fetal bovine serum, heat inactivated (HyClone Laboratories Inc., cat. SH30070.03HI), 50% L-WRN conditioned media (ATCC, cat. CRL-3276), 1.25 mM N-Acetyl-L-cysteine (Sigma-Aldrich, cat. A9165), 10 mM nicotinamide (Sigma-Aldrich, cat. N0636), 1X B-27 supplement (Thermo Fisher Scientific, cat. 17504044), 1X N-2 supplement (Thermo Fisher Scientific, cat. 17502048), 10 microM Y-27632 dihydrochloride (Tocris Bioscience, cat. 1254), and 50 ng/mL human EGF recombinant protein (Thermo Fisher Scientific, cat. PHG0311). The 485176-168-R4-J1-PDC line was cultured in Panc media, which includes all 6C/Colon 1B media components plus 100 ng/mL human FGF-10 (Thermo Fisher Scientific, cat. 100-26), 500 nM SB-431542 (Selleckchem, cat. S1067), and gastrin (Tocris, cat. 3006).
[…]

[1] = second compound 0.0316 µM, first compound 0.0316 µM
[2] = second compound 0.0316 µM, first compound 0.316 µM
[3] = second compound 0.1 µM, first compound 0.0316 µM
[4] = second compound 0.1 µM, first compound 0.316 µM
[5] = second compound 0.316 µM, first compound 0.0316 µM
[6] = second compound 0.316 µM, first compound 0.316 µM
[7] = second compound 1 µM, first compound 0.0316 µM
[8] = second compound 1 µM, first compound 0.316 µM
[9] = second compound 3.16 µM, first compound 0.0316 µM
[10] = second compound 3.16 µM, first compound 0.316 µM
[11] = second compound 10 µM, first compound 0.0316 µM
[12] = second compound 10 µM, first compound 0.316 µM
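Note: spheroids exposed to drugs for seven days.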
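Throughout, for viability, T/C: 100% = DMSO vehicle control viability.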

Cn1ncnc1[C@H]1c2n[nH]c(=O)c3cc(F)cc(c23)N[C@@H]1c1ccc(F)cc1 + CN(C)c1ccc(Nc2c3ccc(NC(=O)CCN4CCCC4)cc3nc3cc(NC(=O)CCN4CCCC4)ccc23)cc1
IC50 (second compound 0.0316 µM): > 0.316 µM | IC50 (second compound 0.1 µM): > 0.316 µM | IC50 (second compound 0.316 µM): > 0.316 µM | IC50 (second compound 1 µM): > 0.316 µM | IC50 (second compound 3.16 µM): > 0.316 µM | IC50 (second compound 10 µM): < 0.000999 µM | viability, T/C (second compound 0.0316 µM, first compound 0.000999 µM): 81.5% | viability, T/C (second compound 0.0316 µM, first compound 0.00316 µM): 96.6% | viability, T/C (second compound 0.0316 µM, first compound 0.00999 µM): 85.2% | viability, T/C [1]: 88.2% | viability, T/C (second compound 0.0316 µM, first compound 0.0999 µM): 94.6% | viability, T/C [2]: 97.8% | viability, T/C (second compound 0.1 µM, first compound 0.000999 µM): 90.3% | viability, T/C (second compound 0.1 µM, first compound 0.00316 µM): 81.3% | viability, T/C (second compound 0.1 µM, first compound 0.00999 µM): 90.7% | viability, T/C [3]: 84.7% | viability, T/C (second compound 0.1 µM, first compound 0.0999 µM): 70.4% | viability, T/C [4]: 64.3% | viability, T/C (second compound 0.316 µM, first compound 0.000999 µM): 68% | viability, T/C (second compound 0.316 µM, first compound 0.00316 µM): 62.4% | viability, T/C (second compound 0.316 µM, first compound 0.00999 µM): 69.6% | viability, T/C [5]: 61.3% | viability, T/C (second compound 0.316 µM, first compound 0.0999 µM): 61.9% | viability, T/C [6]: 67.4% | viability, T/C (second compound 1 µM, first compound 0.000999 µM): 57.5% | viability, T/C (second compound 1 µM, first compound 0.00316 µM): 51% | viability, T/C (second compound 1 µM, first compound 0.00999 µM): 42.3% | viability, T/C [7]: 58.1% | viability, T/C (second compound 1 µM, first compound 0.0999 µM): 48% | viability, T/C [8]: 52.8% | viability, T/C (second compound 3.16 µM, first compound 0.000999 µM): 62.4% | viability, T/C (second compound 3.16 µM, first compound 0.00316 µM): 60.7% | viability, T/C (second compound 3.16 µM, first compound 0.00999 µM): 54.5% | viability, T/C [9]: 60.7% | viability, T/C (second compound 3.16 µM, first compound 0.0999 µM): 59.9% | viability, T/C [10]: 52.7% | viability, T/C (second compound 10 µM, first compound 0.000999 µM): 47.2% | viability, T/C (second compound 10 µM, first compound 0.00316 µM): 43.1% | viability, T/C (second compound 10 µM, first compound 0.00999 µM): 55.8% | viability, T/C [11]: 47.6% | viability, T/C (second compound 10 µM, first compound 0.0999 µM): 57.1% | viability, T/C [12]: 54.2%

O=c1[nH]cc(F)c(=O)[nH]1 + CN(C)c1ccc(Nc2c3ccc(NC(=O)CCN4CCCC4)cc3nc3cc(NC(=O)CCN4CCCC4)ccc23)cc1
IC50 (second compound 0.0316 µM): > 10 µM | IC50 (second compound 0.1 µM): > 10 µM | IC50 (second compound 0.316 µM): > 10 µM | IC50 (second compound 1 µM): > 10 µM | IC50 (second compound 3.16 µM): > 10 µM | IC50 (second compound 10 µM): > 10 µM | viability, T/C [1]: 93.7% | viability, T/C (second compound 0.0316 µM, first compound 0.1 µM): 83.7% | viability, T/C [2]: 108% | viability, T/C (second compound 0.0316 µM, first compound 1 µM): 108% | viability, T/C (second compound 0.0316 µM, first compound 3.16 µM): 90.2% | viability, T/C (second compound 0.0316 µM, first compound 10 µM): 103% | viability, T/C [3]: 92% | viability, T/C (second compound 0.1 µM, first compound 0.1 µM): 76.5% | viability, T/C [4]: 80.5% | viability, T/C (second compound 0.1 µM, first compound 1 µM): 88.5% | viability, T/C (second compound 0.1 µM, first compound 3.16 µM): 75.1% | viability, T/C (second compound 0.1 µM, first compound 10 µM): 103% | viability, T/C [5]: 69.1% | viability, T/C (second compound 0.316 µM, first compound 0.1 µM): 62.3% | viability, T/C [6]: 60.1% | viability, T/C (second compound 0.316 µM, first compound 1 µM): 61% | viability, T/C (second compound 0.316 µM, first compound 3.16 µM): 72.2% | viability, T/C (second compound 0.316 µM, first compound 10 µM): 61.8% | viability, T/C [7]: 66.8% | viability, T/C (second compound 1 µM, first compound 0.1 µM): 62.9% | viability, T/C [8]: 63.7% | viability, T/C (second compound 1 µM, first compound 1 µM): 66.2% | viability, T/C (second compound 1 µM, first compound 3.16 µM): 52.2% | viability, T/C (second compound 1 µM, first compound 10 µM): 59.3% | viability, T/C [9]: 59.3% | viability, T/C (second compound 3.16 µM, first compound 0.1 µM): 58.5% | viability, T/C [10]: 54.9% | viability, T/C (second compound 3.16 µM, first compound 1 µM): 57.9% | viability, T/C (second compound 3.16 µM, first compound 3.16 µM): 69.8% | viability, T/C (second compound 3.16 µM, first compound 10 µM): 62.4% | viability, T/C [11]: 49.8% | viability, T/C (second compound 10 µM, first compound 0.1 µM): 54.9% | viability, T/C [12]: 51.5% | viability, T/C (second compound 10 µM, first compound 1 µM): 46.1% | viability, T/C (second compound 10 µM, first compound 3.16 µM): 51.3% | viability, T/C (second compound 10 µM, first compound 10 µM): 59.1%
